The record followed here is patent US20230074558A1, “DIMERIC COMPOUNDS AS STING AGONISTS” (Mersana Therapeutics, Inc., priority 2019, published 2023).

Common to all, as to format: cell-based
In assay [1] the target is T1, R232 hSTING variant (Homo sapiens, UniProt Q86WV6, H232R).
T1 construct: host or cells: THP1-Dual KO-STING cells (knock-in: THP1-Dual KI-hSTING-R232)
Kind of assay: IRF3 reporter induction in THP1-Dual KI-hSTING-R232 Cells. The following applies: THP1-Dual KI-hSTING-R232 Cells (R232 haplotype). As for the experimental part: (§1) THP1-Dual™ Human Monocytes cells with the homozygous HAQ allele, known to be a natural variant allele of STING occurring in ˜20% of the human population (Invivogen) have been engineered with two independent gene reporter systems: a secreted embryonic alkaline phosphatase (SEAP) reporter gene for NFkB activity, and secreted luciferase reporter for […] (IRF3) activity were used. 4×10^5 THP1-Dual™ cells were incubated with test Compounds in a 5-fold titration steps from 1 to 0.0128 μM in RPMI media with 10% FBS, for 24 hours at 37° C. with 5% CO2. Cell culture supernatants (20 μl) from each incubated sample was added to resuspended QUANTI-Blue™ Solution (Invivogen, 180 μl) in each well of a flat-bottom 96-well plate, then incubated for 2 h. NFkB levels were evaluated using a spectrophotometer at 620-655 nm.
(§2) To evaluate IRF3 reporter levels, cell culture supernatant (20 μl) from each incubated sample was added to QUANTI-Luc™ assay solution (Invivogen, 50 μl), and the luminescence was measured with a SpectraMax M3 spectrophotometer (Molecular Devices).
NFkB and IRF3 reporter levels were also determined for THP1-Dual™ KI-hSTING-H232 Cells and THP1-Dual™ KI-hSTING-R232 Cells. THP1-Dual™ KI-hSTING-H232 Cells (R232H Haplotype) were generated from THP1-Dual™ KO-STING cells by knockin of the intronless coding sequence (from the ATG to TGA) of the R232H human STING variant (Invivogen). R232H has been identified as a natural variant allele of STING occurring in ˜14% of the human population. THP1-Dual™ KI-hSTING-R232 Cells (R232 Haplotype) were generated from THP1-Dual™ KO-STING cells by knockin of the intronless coding sequence (from the ATG to the TGA) of the R232 hSTING variant. Genomic studies indicate that this variant, which contains an arginine at position 232 (R232), is the most prevalent variant with an occurrence (homozygous allele) of ˜45-58% in the human population.
(§3) The EC50 value was determined from the dose response curve based on reference Compounds. Table A provides the results for IRF3 reporter induction THP1-Dual™ Human Monocytes cells and Table B provides the results for IRF3 reporter induction in THP1-Dual™ KI-hSTING-R232 Cells (“A” means <1 μM; “B” means ≥1 μM and <10 μM; “C” means ≥10 μM).

In assay [2] the target is T2, human STING (homozygous HAQ allele) (Homo sapiens, UniProt Q86WV6, G230A/H232R/R293Q/R71H).
T2 construct: THP1-Dual™ Human Monocytes cells with the homozygous HAQ allele, known to be a natural variant allele of STING; host or cells: THP1-Dual human monocytes
T2 sequence (Q86WV6 whole entry R71H/G230A/H232R/R293Q): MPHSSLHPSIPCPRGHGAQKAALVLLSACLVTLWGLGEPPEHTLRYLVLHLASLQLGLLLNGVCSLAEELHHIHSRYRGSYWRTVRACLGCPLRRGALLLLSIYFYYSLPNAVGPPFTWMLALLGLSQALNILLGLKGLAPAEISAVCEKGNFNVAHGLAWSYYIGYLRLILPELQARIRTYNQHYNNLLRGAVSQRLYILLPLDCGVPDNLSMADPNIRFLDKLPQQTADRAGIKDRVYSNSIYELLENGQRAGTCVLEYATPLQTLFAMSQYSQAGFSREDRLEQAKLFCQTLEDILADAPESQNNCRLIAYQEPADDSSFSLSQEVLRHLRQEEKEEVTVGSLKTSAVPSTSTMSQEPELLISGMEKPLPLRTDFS
Kind of assay: Activation of human STING signaling in THP1-Dual Human Monocytes cells, IRF3 luciferase reporter induction. The following applies: 24 hours incubation. As for the experimental part: as §1, §2, §3
A general note: In a reporter assay the amount or activity of a reporter protein is the signal.

The target in assay [3] is T3, human STING (Homo sapiens, UniProt Q86WV6, G230A/H232R/R293Q/R71H).
T3 construct: host or cells: THP1-Dual cells, digitonin-permeabilized
T3 sequence (Q86WV6 whole entry R71H/G230A/H232R/R293Q): as above
The assay can be described thus: Activation of human STING signaling in permeabilized THP1-Dual cells, IRF3 induction. As to conditions: digitonin-permeabilized THP1-Dual cells, 30 minutes on ice then 24 h. As for the experimental part: 4×10^5 THP1-Dual™ cells (NF-κB-SEAP and IRF-Lucia luciferase Reporter Monocytes, Invivogen) were incubated with test Compounds in a 5-fold titration steps from […] in permeabilized buffer (50 mM HEPES pH 7.0, 100 mM KCl, 3 mM MgCl2, 85 mM sucrose, 0.2% BSA, 1 mM ATP, 0.1 mM GTP, 0.1 mM TTP, […]) for 30 minutes on ice. Cells were then washed and incubated in a fresh RPMI media with 10% FBS at 37° C. with 5% CO2 for 24 h. Cell culture supernatants from each sample were collected and NFkB and IRF3 were evaluated as above. Table B provides the results for IRF3 induction (“A” means <1 μM; “B” means ≥1 μM and <10 μM; “C” means ≥10 μM).

Molecules are shown by their SMILES. Bounds are passed on as bounds.

T1 sequence (Q86WV6 whole entry H232R): as the sequence (Q86WV6 whole entry R71H/G230A/H232R/R293Q) above, with H71R, A230G, Q293R counted along it

Regarding `COc1cc2sc(C(=O)CCC(=O)O)cc2cc1NC(=O)COc1c(OC)cc2sc(C(=O)CCC(=O)O)cc2c1F` [Compound 222], the EC50 in assay [1] and in assay [2] was at least 10 µM each time.
Regarding `COc1cc2sc(C(=O)CCC(=O)O)cc2cc1NC(=O)C1CCN(c2cc3cc(C(=O)CCC(=O)O)sc3cc2OC)C1=O` (stereo not shown) [Compound 221], the EC50 in assay [1] and in assay [2] was at least 10 µM in each case.
Regarding `COc1cc2sc(C(=O)CCC(=O)O)cc2c(F)c1OC/C=C\COc1c(OC)cc2sc(C(=O)CCC(=O)O)cc2c1F` [Compound 204, (Z)-4,4′-((but-2-ene-1,4-diylbis(oxy))bis(4-fluoro-6-methoxybenzo[b]-thiophene-5,2-diyl))bis(4-oxobutanoic acid)], the concentration for a half-maximal effect (EC50) in assay [1] and in assay [2] was below 1 µM throughout.
`COc1cc2sc(C(=O)CCC(=O)O)cc2c(F)c1OC/C=C/COc1c(OC)cc2sc(C(=O)CCC(=O)O)cc2c1F` [Compound 203, (E)-4,4′-((but-2-ene-1,4-diylbis(oxy))bis(4-fluoro-6-methoxybenzo[b]thiophene-5,2-diyl))bis(4-oxobutanoic acid)]: the EC50 (as a rule, the midpoint of the concentration-response curve) was 1 to 10 µM in assay [1] and below 1 µM in assay [2].
Regarding `C=C(COc1c(OC)cc2sc(C(=O)CCC(=O)OC)nc2c1F)COc1c(OC)cc2sc(C(=O)CCC(=O)OC)nc2c1F` [compound 264], the EC50 was at least 10 µM in assay [1] and below 1 µM in assay [2].
For the compound `C=C(COc1c(OC)cc2sc(C(=O)CCC(=O)O)cc2c1F)COc1c(OC)cc2sc(C(=O)CCC(=O)O)cc2c1F` [Compound 202, 4,4′-(((2-methylenepropane-1,3-diyl)bis(oxy))bis(4-fluoro-6-methoxybenzo[b]-thiophene-5,2-diyl))bis(4-oxobutanoic acid)], the EC50 in assay [1] and in assay [2] was below 1 µM in each case.
Consider `COc1cc2sc(C(=O)CCC(=O)O)cc2cc1NCCC(=O)Nc1cc2cc(C(=O)CCC(=O)O)sc2cc1OC` [Compound 226], for which the EC50 in assay [1] and in assay [2] was at least 10 µM each time.
Regarding `O=C(O)CCC(=O)c1nc2ccc(/C=C\c3ccc4nc(C(=O)CCC(=O)O)sc4c3)cc2s1` [Compound 6, (Z)-4,4′-(ethene-1,2-diylbis(benzo[d]thiazole-6,2-diyl))bis(4-oxobutanoic acid)], the EC50 in assay [3] and in assay [2] was at least 10 µM throughout.
Regarding `O=C(O)CCC(=O)c1cc2ccc(-c3ccccc3-c3ccc4cc(C(=O)CCC(=O)O)sc4c3)cc2s1` [Compound 30, 4,4′-(1,2-phenylenebis(benzo[b]thiophene-6,2-diyl))bis(4-oxobutanoic acid)], the EC50 in assay [3] and in assay [2] was 1 to 10 µM each time.
Turning to `COc1cc2sc(C(=O)CCC(=O)O)cc2cc1/C=C/C(=O)Nc1cc2cc(C(=O)CCC(=O)O)sc2cc1OC` [Compound 229], the EC50 in assay [1] and in assay [2] was at least 10 µM throughout.
For the compound `COc1cc2sc(C(=O)CCC(=O)O)cc2cc1CCC(=O)Nc1cc2cc(C(=O)CCC(=O)O)sc2cc1OC` [Compound 219], the EC50 in assay [1] and in assay [2] was at least 10 µM in each case.
For the compound `COc1cc2sc(C(=O)CCC(=O)O)cc2cc1CCCC(=O)Nc1cc2cc(C(=O)CCC(=O)O)sc2cc1OC` [Compound 220], the EC50 in assay [1] and in assay [2] was at least 10 µM in each case.
Turning to `COc1cc2sc(C(=O)CCC(=O)O)cc2cc1NC(=O)CCOc1c(OC)cc2sc(C(=O)CCC(=O)O)cc2c1F` [Compound 206], the EC50 in assay [1] is below 1 µM; in assay [2], at least 10 µM.
With `O=C(O)CCC(=O)c1cc2ccc(CNC(=S)NCc3ccc4cc(C(=O)CCC(=O)O)sc4c3)cc2s1` [Compound 48, 4,4′-(((thiocarbonylbis(azanediyl))bis(methylene))bis(benzo[b]thiophene-6,2-diyl))bis(4-oxobutanoic acid)], the EC50 in assay [3] and in assay [2] was at least 10 µM each time.
As to `C=C(COc1cc2cc(C(=O)CCC(=O)O)sc2cc1OC)COc1cc2cc(C(=O)CCC(=O)O)sc2cc1OC` [Compound 40, 4,4′-(((2-methylenepropane-1,3-diyl)bis(oxy))bis(6-methoxybenzo[b]-thiophene-5,2-diyl))bis(4-oxobutanoic acid)], the EC50 in assay [1] was at least 10 µM; in assay [2] it was below 1 µM.
With `COc1cc2sc(C(=O)CCC(=O)O)cc2c(F)c1OCC#CCOc1c(OC)cc2sc(C(=O)CCC(=O)O)cc2c1F` [Compound 227], the EC50 in assay [1] and in assay [2] was at least 10 µM in each case.
In the case of `COc1cc2sc(C(=O)CCC(=O)O)cc2c(F)c1OCc1ccccc1COc1c(OC)cc2sc(C(=O)CCC(=O)O)cc2c1F` [Compound 211, 4,4′-(((1,2-phenylenebis(methylene))bis(oxy))bis(4-fluoro-6-methoxybenzo[b]thiophene-5,2-diyl))bis(4-oxobutanoic acid)], the EC50 in assay [1] and in assay [2] was below 1 µM each time.
Regarding `COc1cc2sc(C(=O)CCC(=O)O)cc2cc1NC(=O)C1(C(=O)Nc2cc3cc(C(=O)CCC(=O)O)sc3cc2OC)CCOCC1` [Compound 218], the EC50 in assay [1] and in assay [2] was at least 10 µM in each case.
As to `COc1cc2sc(C(=O)CCC(=O)O)cc2cc1NC(=O)C1(C(=O)Nc2cc3cc(C(=O)CCC(=O)O)sc3cc2OC)CC1` [Compound 205], the EC50 in assay [1] and in assay [2] was at least 10 µM throughout.
With `C=C(COc1cc2cc(C(=O)CCC(=O)O)sc2cc1OC)COc1c(OC)cc2sc(C(=O)CCC(=O)O)cc2c1F` [Compound 207, 4-(5-((2-(((2-(3-carboxypropanoyl)-4-fluoro-6-methoxybenzo[b]thiophen-5-yl)oxy)methyl)allyl)oxy)-6-methoxybenzo[b]thiophen-2-yl)-4-oxobutanoic acid], the EC50 in assay [1] and in assay [2] was below 1 µM in each case.
With `COc1cc2sc(C(=O)CCC(=O)O)cc2c(F)c1OCC(=CC(=O)OC(C)(C)C)COc1c(OC)cc2sc(C(=O)CCC(=O)O)cc2c1F` [Compound 209], the EC50 in assay [1] and in assay [2] was at least 10 µM throughout.
`COC(=O)CCC(=O)c1cc2c(F)c(OCC3(COc4c(OC)cc5sc(C(=O)CCC(=O)OC)cc5c4F)COC3)c(OC)cc2s1` [Compound 262] displayed an EC50 in assay [2] of at least 10 µM.
For `COc1cc2sc(C(=O)CCC(=O)O)cc2c(F)c1OCC(=CCO)COc1c(OC)cc2sc(C(=O)CCC(=O)O)cc2c1F` [Compound 210, 4,4′-(((2-(2-hydroxyethylidene)propane-1,3-diyl)bis(oxy))bis(4-fluoro-6-methoxybenzo[b]thiophene-5,2-diyl))bis(4-oxobutanoic acid)], the EC50 in assay [1] and in assay [2] was below 1 µM throughout.
As to `COc1cc2sc(C(=O)CCC(=O)O)cc2cc1NC(=O)CC(=O)Nc1cc2cc(C(=O)CCC(=O)O)sc2cc1OC` [Compound 224], the EC50 in assay [1] and in assay [2] was at least 10 µM throughout.
For the compound `COc1cc2sc(C(=O)CCC(=O)O)cc2cc1NC(=O)C1(C(=O)Nc2cc3cc(C(=O)CCC(=O)O)sc3cc2OC)CCC1` [Compound 223], the EC50 in assay [1] and in assay [2] was at least 10 µM throughout.
In assay [2], `O=C(O)CCC(=O)c1nc2ccc(NC(=O)COc3ccc4nc(C(=O)CCC(=O)O)sc4c3)cc2s1` [Compound 18] gave an EC50 below 1 µM.
For `COc1cc2sc(C(=O)CCC(=O)O)cc2c(F)c1OCC(=CC(=O)F)COc1c(OC)cc2sc(C(=O)CCC(=O)O)cc2c1F` [Compound 208], the EC50 in assay [1] and in assay [2] was at least 10 µM each time.
